Experiments:
Serotoninergic 5-HT1A = Serotoninergic 5-HT1A (Homo sapiens, UniProt P08908); test: CNS receptor binding assay; settings: read-out: % Inhibition of control specific binding
Oppioid μ = Oppioid μ (Homo sapiens, UniProt P35372); test: CNS receptor binding assay; settings: [3H] DAMGO, Human recombinant (HEK-293 cells), read-out: % Inhibition of control specific binding
Histaminergic H2 = Histaminergic H2 (Homo sapiens, UniProt P25021); test: CNS receptor binding assay; settings: read-out: % Inhibition of control specific binding
Serotoninergic 5-HT6 = Serotoninergic 5-HT6 (Homo sapiens, UniProt P50406); test: CNS receptor binding assay; settings: read-out: % Inhibition of control specific binding
Noradrenergic β1 = Noradrenergic β1 (Homo sapiens, UniProt P08588); test: CNS receptor binding assay; settings: read-out: % Inhibition of control specific binding
Noradrenergic β2 = Noradrenergic β2 (Homo sapiens, UniProt P07550); test: CNS receptor binding assay; settings: read-out: % Inhibition of control specific binding
Dopaminergic D3 = Dopaminergic D3 (Homo sapiens, UniProt P35462); test: CNS receptor binding assay; settings: read-out: % Inhibition of control specific binding
[1] = target: Muscarinic (Cholinergic) M3 (Homo sapiens, UniProt P20309); test: CNS receptor binding assay; settings: [3H] 4-DAMP, Human recombinant (CHO cells), read-out: % Inhibition of control specific binding
Dopaminergic D1 = Dopaminergic D1 (Homo sapiens, UniProt P21728); test: CNS receptor binding assay; settings: read-out: % Inhibition of control specific binding
[2] = target: T1, human progesterone receptor(PR) (Homo sapiens, UniProt P06401); test: Progesterone receptor agonist transactivation (MMTV-luciferase) in transfected HEK293T cells; assay type: cell-based; settings: 24 hours, increasing amounts, FIG. 1
T1 construct: expressed in transfected cells; host or cells: HEK293T
T1 sequence (P06401 1-933): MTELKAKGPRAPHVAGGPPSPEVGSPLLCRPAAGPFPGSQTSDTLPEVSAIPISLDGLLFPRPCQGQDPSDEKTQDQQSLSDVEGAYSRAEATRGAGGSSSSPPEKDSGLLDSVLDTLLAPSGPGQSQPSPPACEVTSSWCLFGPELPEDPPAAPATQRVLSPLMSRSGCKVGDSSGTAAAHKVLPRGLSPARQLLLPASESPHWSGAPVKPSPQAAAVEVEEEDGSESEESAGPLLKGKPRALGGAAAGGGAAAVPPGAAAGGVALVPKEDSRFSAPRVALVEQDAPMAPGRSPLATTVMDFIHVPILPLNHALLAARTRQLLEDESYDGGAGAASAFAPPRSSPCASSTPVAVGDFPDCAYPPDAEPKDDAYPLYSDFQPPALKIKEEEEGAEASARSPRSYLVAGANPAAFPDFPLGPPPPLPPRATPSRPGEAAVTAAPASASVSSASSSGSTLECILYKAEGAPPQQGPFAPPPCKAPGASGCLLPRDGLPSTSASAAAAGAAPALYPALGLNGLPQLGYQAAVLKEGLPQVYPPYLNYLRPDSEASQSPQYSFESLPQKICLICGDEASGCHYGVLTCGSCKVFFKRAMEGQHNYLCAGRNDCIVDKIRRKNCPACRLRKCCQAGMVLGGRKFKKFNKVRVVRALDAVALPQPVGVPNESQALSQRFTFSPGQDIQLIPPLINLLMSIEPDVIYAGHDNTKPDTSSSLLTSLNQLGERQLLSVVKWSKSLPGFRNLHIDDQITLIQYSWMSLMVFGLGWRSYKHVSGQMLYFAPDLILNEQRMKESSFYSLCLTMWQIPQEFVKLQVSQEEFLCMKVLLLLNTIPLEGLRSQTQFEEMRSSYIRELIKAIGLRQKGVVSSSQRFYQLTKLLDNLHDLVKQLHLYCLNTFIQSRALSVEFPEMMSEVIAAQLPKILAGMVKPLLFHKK
Protocol: The main experimental setting used is the following: HEK293T cells were transiently transfected, using calcium phosphate precipitation technology, with expression vectors pSG5hPR (which permits expression of human progesterone receptor(PR)), pFC31-luc (contains the luciferase gene under the control of the MMTV promoter, which is in turn activated by binding of a progestin to progesterone receptor) and pcbetagal (which permits expression of betagalactosidase), and cultured during 24 hours with increasing amounts of various compositions: • 1. […] Test of progesterone receptor […] activity: transfected cells were cultured with progesterone (1 nM) and increasing amounts of RU486 (a well-known progesterone receptor antagonist) or 3-methoxy-pregnenolone. • With this setting, a compound with progesterone receptor antagonist activity competes with progesterone for the occupation of progesterone receptor and results in a progressive loss of transactivation activity when the amount of this compound is increased compared to progesterone.

[3] = target: Muscarinic (Cholinergic) M1 (Homo sapiens, UniProt P11229); test: CNS receptor binding assay; settings: [3H] pirenzepine, Human recombinant (CHO cells), read-out: % Inhibition of control specific binding
[4] = target: Muscarinic (Cholinergic) M5 (Homo sapiens, UniProt P08912); test: CNS receptor binding assay; settings: [3H] 4-DAMP, Human recombinant (CHO cells), read-out: % Inhibition of control specific binding
NMDA PCP site = test: CNS receptor binding assay; settings: 10 μM; [3H] TCP; rat cerebral cortex
Serotoninergic 5-HT5A = Serotoninergic 5-HT5A (Homo sapiens, UniProt P47898); test: CNS receptor binding assay; settings: read-out: % Inhibition of control specific binding
[5] = Blood parameters before and after MAP4343 treatment; assay type: in vivo, Wistar rats; settings: dependent and non-dependent rats, pre/post treatment, 10 mg/kg sub-cutaneously, FIGS. 4 to 17
Protocol: Blood samples were obtained before and after completion of the treatment with MAP4343 using retro-orbital sampling. Blood, serum and plasma were collected and analyzed using standard procedures to evaluate blood count panel, blood urea nitrogen, cholesterol, creatinine, T3, T4 and protein electrophoresis.
Data were analyzed by appropriate mixed factorial ANOVA, followed Newman Keuls post hoc tests

MAP2 = MAP2 (Homo sapiens, UniProt P11137); test: Binding by displacement of PREG-3H
[6] = target: Muscarinic (Cholinergic) M2 (Homo sapiens, UniProt P08172); test: CNS receptor binding assay; settings: [3H] AF-DX 384, Human recombinant (CHO cells), read-out: % Inhibition of control specific binding
GABA (non-selective) = test: CNS receptor binding assay; settings: 10 μM; [3H] GABA; rat cerebral cortex
Histaminergic H1 = Histaminergic H1 (Homo sapiens, UniProt P35367); test: CNS receptor binding assay; settings: read-out: % Inhibition of control specific binding
Histaminergic H1, sequence (P35367 whole entry): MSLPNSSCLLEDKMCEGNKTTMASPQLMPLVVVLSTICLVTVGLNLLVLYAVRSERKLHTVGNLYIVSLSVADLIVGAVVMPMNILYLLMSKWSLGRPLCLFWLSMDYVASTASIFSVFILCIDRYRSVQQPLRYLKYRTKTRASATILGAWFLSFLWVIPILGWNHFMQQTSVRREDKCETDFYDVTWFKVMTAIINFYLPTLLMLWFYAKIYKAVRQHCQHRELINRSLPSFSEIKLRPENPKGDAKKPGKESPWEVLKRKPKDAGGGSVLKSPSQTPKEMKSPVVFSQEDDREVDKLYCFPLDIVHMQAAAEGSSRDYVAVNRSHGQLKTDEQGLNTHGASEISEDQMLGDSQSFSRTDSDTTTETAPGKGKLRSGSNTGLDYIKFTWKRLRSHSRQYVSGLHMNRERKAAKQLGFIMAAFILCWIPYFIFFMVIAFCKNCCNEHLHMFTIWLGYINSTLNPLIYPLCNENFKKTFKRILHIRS

Dopaminergic D1, sequence (P21728 whole entry): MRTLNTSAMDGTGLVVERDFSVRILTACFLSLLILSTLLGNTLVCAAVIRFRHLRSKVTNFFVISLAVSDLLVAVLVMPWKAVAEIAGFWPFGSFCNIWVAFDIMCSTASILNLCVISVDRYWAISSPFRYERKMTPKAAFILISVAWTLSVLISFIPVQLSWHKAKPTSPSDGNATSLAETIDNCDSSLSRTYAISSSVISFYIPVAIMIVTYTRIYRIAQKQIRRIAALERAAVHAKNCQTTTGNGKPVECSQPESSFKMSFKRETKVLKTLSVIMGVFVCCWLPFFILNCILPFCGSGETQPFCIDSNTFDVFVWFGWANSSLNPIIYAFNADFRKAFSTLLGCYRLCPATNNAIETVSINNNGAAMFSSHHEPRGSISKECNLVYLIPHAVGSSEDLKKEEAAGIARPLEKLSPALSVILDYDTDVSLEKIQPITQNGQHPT
Noradrenergic β1, sequence (P08588 whole entry): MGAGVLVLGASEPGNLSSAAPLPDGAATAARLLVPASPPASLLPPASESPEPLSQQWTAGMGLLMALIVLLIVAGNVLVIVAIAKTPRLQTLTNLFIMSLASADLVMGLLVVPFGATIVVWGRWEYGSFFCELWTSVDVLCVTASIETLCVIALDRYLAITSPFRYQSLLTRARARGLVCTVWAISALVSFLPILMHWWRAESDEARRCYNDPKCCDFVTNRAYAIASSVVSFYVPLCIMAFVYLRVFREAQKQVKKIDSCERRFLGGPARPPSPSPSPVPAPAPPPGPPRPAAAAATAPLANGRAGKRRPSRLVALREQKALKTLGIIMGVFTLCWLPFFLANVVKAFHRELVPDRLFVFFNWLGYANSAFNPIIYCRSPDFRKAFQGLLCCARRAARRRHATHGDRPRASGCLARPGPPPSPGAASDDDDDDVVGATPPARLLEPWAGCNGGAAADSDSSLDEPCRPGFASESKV
Oppioid μ, sequence (P35372 whole entry): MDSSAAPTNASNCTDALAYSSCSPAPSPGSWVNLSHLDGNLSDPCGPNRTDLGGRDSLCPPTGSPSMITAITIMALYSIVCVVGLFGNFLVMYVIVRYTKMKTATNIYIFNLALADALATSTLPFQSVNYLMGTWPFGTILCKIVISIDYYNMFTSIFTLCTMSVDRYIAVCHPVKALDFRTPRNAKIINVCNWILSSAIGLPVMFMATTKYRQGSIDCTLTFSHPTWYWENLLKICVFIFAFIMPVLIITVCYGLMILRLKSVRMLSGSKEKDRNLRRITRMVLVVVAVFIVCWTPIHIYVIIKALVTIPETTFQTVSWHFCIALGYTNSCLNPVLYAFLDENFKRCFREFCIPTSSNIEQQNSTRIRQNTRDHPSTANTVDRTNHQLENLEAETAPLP
Serotoninergic 5-HT1A, sequence (P08908 whole entry): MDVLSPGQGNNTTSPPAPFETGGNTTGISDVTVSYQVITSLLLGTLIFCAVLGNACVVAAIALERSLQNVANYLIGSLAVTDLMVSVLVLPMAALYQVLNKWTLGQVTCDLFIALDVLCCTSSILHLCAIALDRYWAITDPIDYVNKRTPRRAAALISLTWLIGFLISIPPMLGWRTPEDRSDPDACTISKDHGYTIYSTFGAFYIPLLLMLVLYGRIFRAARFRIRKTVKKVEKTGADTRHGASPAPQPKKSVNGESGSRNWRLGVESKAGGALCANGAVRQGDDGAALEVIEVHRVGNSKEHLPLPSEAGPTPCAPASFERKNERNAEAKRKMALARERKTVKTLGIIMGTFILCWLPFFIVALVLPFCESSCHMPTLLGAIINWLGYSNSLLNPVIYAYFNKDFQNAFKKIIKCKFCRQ
Serotoninergic 5-HT5A, sequence (P47898 whole entry): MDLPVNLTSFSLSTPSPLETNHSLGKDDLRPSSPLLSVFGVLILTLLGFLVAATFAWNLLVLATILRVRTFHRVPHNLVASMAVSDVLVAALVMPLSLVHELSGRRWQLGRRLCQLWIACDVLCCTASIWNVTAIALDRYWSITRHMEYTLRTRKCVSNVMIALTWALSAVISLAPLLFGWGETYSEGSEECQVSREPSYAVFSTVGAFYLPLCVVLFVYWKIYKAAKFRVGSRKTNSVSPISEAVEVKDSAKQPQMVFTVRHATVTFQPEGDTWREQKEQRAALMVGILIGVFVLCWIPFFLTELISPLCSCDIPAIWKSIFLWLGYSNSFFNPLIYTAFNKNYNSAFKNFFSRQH
Muscarinic (Cholinergic) M1, sequence (P11229 whole entry): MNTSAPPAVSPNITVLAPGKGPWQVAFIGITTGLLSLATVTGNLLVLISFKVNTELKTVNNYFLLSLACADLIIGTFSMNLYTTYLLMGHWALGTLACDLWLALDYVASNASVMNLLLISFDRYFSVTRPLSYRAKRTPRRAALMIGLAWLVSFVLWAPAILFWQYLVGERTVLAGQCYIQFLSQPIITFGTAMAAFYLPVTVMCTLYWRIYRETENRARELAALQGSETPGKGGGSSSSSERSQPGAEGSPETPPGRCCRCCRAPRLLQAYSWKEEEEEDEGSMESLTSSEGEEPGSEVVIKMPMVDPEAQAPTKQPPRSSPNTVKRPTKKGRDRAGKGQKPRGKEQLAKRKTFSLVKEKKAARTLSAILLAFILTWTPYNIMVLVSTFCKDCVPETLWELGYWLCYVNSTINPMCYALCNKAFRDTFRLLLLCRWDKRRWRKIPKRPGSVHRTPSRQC
Muscarinic (Cholinergic) M2, sequence (P08172 whole entry): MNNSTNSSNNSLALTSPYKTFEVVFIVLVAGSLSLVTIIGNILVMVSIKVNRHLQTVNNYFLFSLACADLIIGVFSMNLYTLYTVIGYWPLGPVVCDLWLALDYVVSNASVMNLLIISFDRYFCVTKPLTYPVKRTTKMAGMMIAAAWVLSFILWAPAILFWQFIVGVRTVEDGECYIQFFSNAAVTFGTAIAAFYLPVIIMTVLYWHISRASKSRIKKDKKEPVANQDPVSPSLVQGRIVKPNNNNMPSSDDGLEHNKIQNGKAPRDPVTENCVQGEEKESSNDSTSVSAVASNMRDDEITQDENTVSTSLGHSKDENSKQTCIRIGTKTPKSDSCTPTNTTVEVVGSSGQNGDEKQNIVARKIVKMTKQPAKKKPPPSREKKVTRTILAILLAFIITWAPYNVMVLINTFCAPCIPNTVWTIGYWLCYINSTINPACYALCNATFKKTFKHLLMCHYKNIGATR
Histaminergic H2, sequence (P25021 whole entry): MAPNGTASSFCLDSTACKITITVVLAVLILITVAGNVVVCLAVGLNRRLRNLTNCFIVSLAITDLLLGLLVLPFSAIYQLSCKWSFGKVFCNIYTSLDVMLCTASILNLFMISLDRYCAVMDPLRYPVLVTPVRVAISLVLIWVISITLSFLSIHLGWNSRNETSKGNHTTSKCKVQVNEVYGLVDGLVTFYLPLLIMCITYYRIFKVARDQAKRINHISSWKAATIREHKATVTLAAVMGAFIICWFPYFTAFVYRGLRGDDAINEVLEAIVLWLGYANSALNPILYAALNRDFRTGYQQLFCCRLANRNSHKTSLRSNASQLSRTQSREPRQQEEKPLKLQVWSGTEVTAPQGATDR
Muscarinic (Cholinergic) M5, sequence (P08912 whole entry): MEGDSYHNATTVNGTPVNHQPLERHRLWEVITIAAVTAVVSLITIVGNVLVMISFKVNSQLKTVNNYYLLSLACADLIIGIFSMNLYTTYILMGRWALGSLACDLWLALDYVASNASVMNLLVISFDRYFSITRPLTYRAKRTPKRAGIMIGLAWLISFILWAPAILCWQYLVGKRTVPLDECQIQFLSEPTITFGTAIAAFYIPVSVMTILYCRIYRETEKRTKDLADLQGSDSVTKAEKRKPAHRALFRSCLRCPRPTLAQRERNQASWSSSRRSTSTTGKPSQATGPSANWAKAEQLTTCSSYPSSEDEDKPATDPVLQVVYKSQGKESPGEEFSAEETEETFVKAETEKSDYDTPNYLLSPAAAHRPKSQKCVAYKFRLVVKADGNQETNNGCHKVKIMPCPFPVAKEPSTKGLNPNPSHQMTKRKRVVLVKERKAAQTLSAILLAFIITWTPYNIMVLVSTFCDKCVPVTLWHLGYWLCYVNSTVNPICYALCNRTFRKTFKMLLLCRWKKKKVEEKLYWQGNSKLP
Noradrenergic β2, sequence (P07550 whole entry): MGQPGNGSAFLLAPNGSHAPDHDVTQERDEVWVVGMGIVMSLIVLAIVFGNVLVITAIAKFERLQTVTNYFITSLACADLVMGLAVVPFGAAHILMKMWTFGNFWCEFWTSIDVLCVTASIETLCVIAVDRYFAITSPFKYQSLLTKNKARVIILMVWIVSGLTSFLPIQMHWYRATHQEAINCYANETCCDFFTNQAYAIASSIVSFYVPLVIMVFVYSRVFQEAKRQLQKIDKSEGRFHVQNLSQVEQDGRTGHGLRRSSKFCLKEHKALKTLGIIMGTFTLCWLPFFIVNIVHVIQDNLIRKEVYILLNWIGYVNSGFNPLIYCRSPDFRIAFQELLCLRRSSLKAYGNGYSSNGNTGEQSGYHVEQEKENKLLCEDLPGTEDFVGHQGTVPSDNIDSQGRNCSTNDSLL

Compound `CO[C@H]1CC[C@@]2(C)C(=CC[C@H]3[C@@H]4CC[C@H](C(C)=O)[C@@]4(C)CC[C@@H]32)C1` [MAP4343, 3β-methoxy-pregna-5-ene-20-one] has an inhibition at 10 µM (Serotoninergic 5-HT1A) of 2%, an inhibition at 10 µM (Oppioid μ) of 0% and an inhibition at 10 µM (Histaminergic H2) of -21%. It also gave an inhibition at 10 µM (Serotoninergic 5-HT6) of 12%, an inhibition at 10 µM (Noradrenergic β1) of 1% and an inhibition at 10 µM (Noradrenergic β2) of -4%. It also gave an inhibition at 10 µM (Dopaminergic D3) of 8%, an inhibition at 10 µM [1] of 3% and an inhibition at 10 µM (Dopaminergic D1) of 2%. The “progesterone receptor agonist activity (transactivation, luciferase expression)” value [2] was “does not have progesterone receptor agonist activity”, the inhibition at 10 µM [3] was -3% and the inhibition at 10 µM [4] was 12%. The “% Inhibition of control specific binding” value (NMDA PCP site) was −10%, the inhibition at 10 µM (Serotoninergic 5-HT5A) was -5% and the “effect on blood parameters (blood count panel, blood urea nitrogen, cholesterol, creatinine, T3, T4, protein electrophoresis)” value [5] was “no significant effects of dependence or treatment on any of the blood parameters investigated”. For the same compound, the “Affinity (index of binding, percent of PREG)” value (MAP2) was 100% of PREG, the inhibition at 10 µM [6] was 20% and the “% Inhibition of control specific binding” value (GABA (non-selective)) was 2%. The inhibition at 10 µM (Histaminergic H1) was 9%.
